Values belong to the compound of their own block, whether it stands above or below them.
Key:
Assay type in all cases: functional
HOP-62 = experiment: In vitro anti-cancer activity against HOP 62(Lung) human tumor cell line
SF-268 [1] = experiment: In vitro anti-cancer activity against SF 268(CNS) human tumor cell lines
OVCAR-8 [2] = experiment: In vitro anti-cancer activity against OVCAR 8(Ovarian) human tumor cell lines
UACC-62 = experiment: In vitro anti-cancer activity against UACC 62(Melanoma) human tumor cell line
DU-145 = experiment: In vitro anti-cancer activity against DU-145 (Prostate) human tumor cell line
ACHN = experiment: In vitro anti-cancer activity against ACHN(Renal) human tumor cell line
NCI/ADR-RES [3] = experiment: In vitro anti-cancer activity against MCF-7/ADR (Breast) human tumor cell lines
OVCAR-8 [4] = experiment: In vitro anti-cancer activity against OVCAR 8(Ovarian) human tumor cell line
NCI/ADR-RES [5] = experiment: In vitro anti-cancer activity against MCF-7/ADR (Breast) human tumor cell line
SF-268 [6] = experiment: In vitro anti-cancer activity against SF 268(CNS) human tumor cell line

SMILES: CC[C@@]1(O)C(=O)OCc2c1cc1n(c2=O)C(CC(=O)OC)c2cc3cc([N+](=O)[O-])ccc3nc2-1 (stereo not given in full)
GI50 (HOP-62): 5.25 µM | GI50 (SF-268 [1]): 26.2 µM | GI50 (OVCAR-8 [2]): 12.6 µM | GI50 (UACC-62): 4.04 µM | GI50 (DU-145): 8.51 µM | GI50 (ACHN): 4.61 µM

SMILES: CC[C@@]1(O)C(=O)OCc2c1cc1n(c2=O)C(CC(=O)OC)c2cc3ccccc3nc2-1 (stereo not given in full)
GI50 (SF-268 [1]): 18.6 µM | GI50 (OVCAR-8 [2]): 16.3 µM | GI50 (UACC-62): 6.44 µM | GI50 (DU-145): 15.5 µM | GI50 (ACHN): 5.29 µM | GI50 (NCI/ADR-RES [3]): 7.2 µM

SMILES: CC[C@@]1(O)C(=O)OCc2c1cc1n(c2=O)C(CC(=O)OCCF)c2cc3ccccc3nc2-1 (stereo not given in full)
GI50 (HOP-62): > 30 µM | GI50 (SF-268 [1]): 0.05 µM | GI50 (OVCAR-8 [2]): 0.04 µM | GI50 (UACC-62): 0.2 µM | GI50 (DU-145): 0.1 µM | GI50 (ACHN): 0.08 µM | GI50 (NCI/ADR-RES [3]): 6 µM

SMILES: CC[C@@]1(O)C(=O)OCc2c1cc1n(c2=O)C(CC(N)=O)c2cc3ccccc3nc2-1 (stereo not given in full)
GI50 (HOP-62): > 30 µM | GI50 (SF-268 [1]): 29 µM | GI50 (OVCAR-8 [2]): 20 µM | GI50 (UACC-62): 16 µM | GI50 (DU-145): 12 µM | GI50 (ACHN): 16 µM

SMILES: CC[C@@]1(O)C(=O)OCc2c1cc1n(c2=O)C(CC(=O)OCC(F)(F)F)c2cc3ccccc3nc2-1 (stereo not given in full)
GI50 (HOP-62): 0.13 µM | GI50 (SF-268 [1]): 0.14 µM | GI50 (OVCAR-8 [2]): 1.12 µM | GI50 (UACC-62): 0.3 µM | GI50 (DU-145): 0.28 µM | GI50 (ACHN): 0.17 µM | GI50 (NCI/ADR-RES [3]): 0.5 µM

SMILES: CC[C@@]1(O)C(=O)OCc2c1cc1n(c2=O)C(CC(=O)N2CCCC2)c2cc3ccccc3nc2-1 (stereo not given in full)
GI50 (HOP-62): 0.29 µM | GI50 (OVCAR-8 [2]): 0.76 µM | GI50 (UACC-62): 0.41 µM | GI50 (DU-145): 0.45 µM | GI50 (ACHN): 0.21 µM | GI50 (NCI/ADR-RES [3]): 0.79 µM

SMILES: CC[C@@]1(O)C(=O)OCc2c1cc1n(c2=O)C(CC(C)=O)c2cc3c(O)cccc3nc2-1 (stereo not given in full)
GI50 (HOP-62): 4 µM | GI50 (SF-268 [1]): 4 µM | GI50 (OVCAR-8 [2]): 3.5 µM | GI50 (UACC-62): 7.5 µM | GI50 (DU-145): 2 µM | GI50 (ACHN): 1 µM | GI50 (NCI/ADR-RES [3]): 5 µM

SMILES: CC[C@@]1(O)C(=O)OCc2c1cc1n(c2=O)C(CC(=O)OC)c2cc3c(O)cccc3nc2-1 (stereo not given in full)
GI50 (HOP-62): 2.09 µM | GI50 (SF-268 [1]): 2.32 µM | GI50 (OVCAR-8 [2]): 1.72 µM | GI50 (UACC-62): 1.72 µM | GI50 (DU-145): 0.6 µM | GI50 (ACHN): 0.44 µM

SMILES: CC[C@@]1(O)C(=O)OCc2c1cc1n(c2=O)C(CC(=O)N2CCCCC2)c2cc3ccccc3nc2-1 (stereo not given in full)
GI50 (HOP-62): 0.53 µM | GI50 (SF-268 [1]): 0.65 µM | GI50 (OVCAR-8 [2]): 3.57 µM | GI50 (UACC-62): 0.33 µM | GI50 (DU-145): 0.32 µM | GI50 (ACHN): 0.34 µM | GI50 (NCI/ADR-RES [3]): 3.03 µM

SMILES: CC[C@@]1(O)C(=O)OCc2c1cc1n(c2=O)C(CC(=O)OCCO)c2cc3ccccc3nc2-1 (stereo not given in full)
GI50 (HOP-62): > 30 µM | GI50 (SF-268 [1]): 1 µM | GI50 (OVCAR-8 [2]): 0.25 µM | GI50 (UACC-62): 0.2 µM | GI50 (DU-145): 1 µM | GI50 (ACHN): 10 µM | GI50 (NCI/ADR-RES [3]): 6 µM

SMILES: CC[C@@]1(O)C(=O)OCc2c1cc1n(c2=O)C(CC(C)=O)c2cc3cc([N+](=O)[O-])ccc3nc2-1 (stereo not given in full)
GI50 (HOP-62): 0.13 µM | GI50 (SF-268 [1]): 0.14 µM | GI50 (OVCAR-8 [2]): 1.12 µM | GI50 (UACC-62): 0.3 µM | GI50 (DU-145): 0.28 µM | GI50 (ACHN): 0.17 µM | GI50 (NCI/ADR-RES [3]): 0.5 µM

SMILES: CC[C@@]1(O)C(=O)OCc2c1cc1n(c2=O)C(CC(C)=O)c2cc3ccccc3nc2-1 (stereo not given in full)
GI50 (SF-268 [1]): 7.15 µM | GI50 (OVCAR-8 [2]): 7.39 µM | GI50 (UACC-62): 3.54 µM | GI50 (DU-145): 3.92 µM | GI50 (ACHN): 3.03 µM | GI50 (NCI/ADR-RES [3]): 3.88 µM

GI50 (OVCAR-8 [4]): 0.2 µM | GI50 (DU-145): 0.04 µM | GI50 (ACHN): 0.04 µM
SMILES: CC[C@@]1(O)C(=O)OCc2c1cc1n(c2=O)Cc2cc3c(CN(C)C)c(O)ccc3nc2-1 [TOPOTECAN]
GI50 (HOP-62): 0.05 µM | GI50 (UACC-62): 0.03 µM | GI50 (NCI/ADR-RES [5]): 0.07 µM | GI50 (SF-268 [6]): 0.08 µM
